Laboratory results: the supplement of paper PMC11061612

What was measured:
Lapatinib = compound: CS(=O)(=O)CCNCc1ccc(-c2ccc3ncnc(Nc4ccc(OCc5cccc(F)c5)c(Cl)c4)c3c2)o1 [Lapatinib]; conditions: max 10 µM
How it was run: (§1)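 Plates with 1536 wells received cancer cell lines in 7.5 μl of DMEM/F12 or RPMI containing 10% FBS. After 24 hours at 37°C and 5% CO2, cells were dosed for 72 hours with final DMSO typically 0.2%, and viability was read by CellTiter-Glo 2.0 luminescence scaled between blank-well and DMSO-well means. The single-agent IC50 was taken from a logistic fit of the dose responses made with a non-linear mixed effects model, that logistic curve having two parameters.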

AZD8186 = compound: C[C@@H](Nc1cc(F)cc(F)c1)c1cc(C(=O)N(C)C)cc2c(=O)cc(N3CCOCC3)oc12 [AZD8186]; conditions: max 3 µM
How it was run: as §1

Dasatinib = compound: CC1=C(C(=CC=C1)Cl)NC(=O)C2=CN=C(S2)NC3=CC(=NC(=N3)C)N4CCN(CC4)CCO [Dasatinib]; conditions: max 2 µM
How it was run: as §1

Venetoclax = compound: CC1(C)CCC(CN2CCN(c3ccc(C(=O)NS(=O)(=O)c4ccc(NCC5CCOCC5)c([N+](=O)[O-])c4)c(Oc4cnc5[nH]ccc5c4)c3)CC2)=C(c2ccc(Cl)cc2)C1 [Venetoclax]; conditions: max 1 µM
How it was run: as §1

AZD6738 = compound: C[C@@H]1COCCN1C2=NC(=NC(=C2)C3(CC3)[S@](=N)(=O)C)C4=C5C=CNC5=NC=C4 [AZD6738]; conditions: max 10 µM
How it was run: as §1

Alisertib = compound: COc1cc(Nc2ncc3c(n2)-c2ccc(Cl)cc2C(c2c(F)cccc2OC)=NC3)ccc1C(=O)O [Alisertib]; conditions: max 10 µM
How it was run: as §1

AZD4320 = compound: CN(CC[C@H](CSC1=CC=CC=C1)NC2=C(C=C(C=C2)S(=O)(=O)NC(=O)C3=CC=C(C=C3)N4CCC(CC4)[C@H](C5=CC=CC=C5C6=CC=C(C=C6)Cl)O)S(=O)(=O)C(F)(F)F)CCO [AZD4320]; conditions: max 1 µM
How it was run: as §1

Palbociclib = compound: CC(=O)c1c(C)c2cnc(Nc3ccc(N4CCNCC4)cn3)nc2n(C2CCCC2)c1=O [Palbociclib]; conditions: max 10 µM
How it was run: as §1

AZD7648 = compound: Cc1cc2ncnn2cc1Nc1ncc2c(n1)n(C1CCOCC1)c(=O)n2C [AZD7648]; conditions: max 10 µM
How it was run: as §1

SG3199 = compound: CC1=CN2[C@@H](C1)C=NC3=CC(=C(C=C3C2=O)OC)OCCCCCOC4=C(C=C5C(=C4)N=C[C@@H]6CC(=CN6C5=O)C)OC [SG3199]; conditions: max 0.001 µM
How it was run: as §1

Savolitinib = compound: C[C@@H](c1ccc2nccn2c1)n1nnc2ncc(-c3cnn(C)c3)nc21 [Savolitinib]; conditions: max 1 µM
How it was run: as §1

SN-38 = compound: CCc1c2c(nc3ccc(O)cc13)-c1cc3c(c(=O)n1C2)COC(=O)[C@]3(O)CC [SN-38]; conditions: max 0.3 µM
How it was run: as §1

Gefitinib = compound: COc1cc2ncnc(Nc3ccc(F)c(Cl)c3)c2cc1OCCCN1CCOCC1 [Gefitinib]; conditions: max 10 µM
How it was run: as §1

Olaparib = compound: O=C(c1cc(Cc2n[nH]c(=O)c3ccccc23)ccc1F)N1CCN(C(=O)C2CC2)CC1 [Olaparib]; conditions: max 10 µM
How it was run: as §1

Doxorubicin = compound: COc1cccc2c1C(=O)c1c(O)c3c(c(O)c1C2=O)C[C@@](O)(C(=O)CO)C[C@@H]3O[C@H]1C[C@H](N)[C@H](O)[C@H](C)O1 [Doxorubicin]; conditions: max 1 µM
How it was run: as §1

Taselisib = compound: Cc1nc(-c2cn3c(n2)-c2ccc(-c4cnn(C(C)(C)C(N)=O)c4)cc2OCC3)n(C(C)C)n1 [Taselisib]; conditions: max 10 µM
How it was run: as §1

AZD0156 = compound: CN(C)CCCOc1ccc(-c2ccc3ncc4c(c3c2)n(C2CCOCC2)c(=O)n4C)cn1 [AZD0156]
How it was run: as §1

Prexasertib = compound: COc1cccc(OCCCN)c1-c1cc(Nc2cnc(C#N)cn2)n[nH]1 [Prexasertib]; conditions: max 1 µM
How it was run: as §1

Trametinib = compound: CC(=O)Nc1cccc(-n2c(=O)n(C3CC3)c(=O)c3c(Nc4ccc(I)cc4F)n(C)c(=O)c(C)c32)c1 [Trametinib]; conditions: max 1 µM
How it was run: as §1

AZD1775 = compound: C=CCn1c(=O)c2cnc(Nc3ccc(N4CCN(C)CC4)cc3)nc2n1-c1cccc(C(C)(C)O)n1 [AZD1775]
How it was run: as §1

AZD1390 = compound: CC(C)n1c(=O)n(C)c2cnc3cc(F)c(-c4ccc(OCCCN5CCCCC5)nc4)cc3c21 [AZD1390]; conditions: max 0.3 µM
How it was run: as §1

Selumetinib = compound: Cn1cnc2c(F)c(Nc3ccc(Br)cc3Cl)c(C(=O)NOCCO)cc21 [Selumetinib]; conditions: max 10 µM
How it was run: as §1

Crizotinib = compound: C[C@@H](Oc1cc(-c2cnn(C3CCNCC3)c2)cnc1N)c1c(Cl)ccc(F)c1Cl [Crizotinib]; conditions: max 10 µM
How it was run: as §1

Capivasertib = compound: C1CN(CCC1(C(=O)N[C@@H](CCO)C2=CC=C(C=C2)Cl)N)C3=NC=NC4=C3C=CN4 [Capivasertib]; conditions: max 10 µM
How it was run: as §1

AZD2811 = compound: CCN(CCO)CCCOc1ccc2c(Nc3cc(CC(=O)Nc4cccc(F)c4)[nH]n3)ncnc2c1 [AZD2811]; conditions: max 1 µM
How it was run: as §1

AZD5991 = compound: Cc1c2c(nn1C)CSCc1cc(n(C)n1)CSc1cc(c3ccccc3c1)OCCCc1c(C(=O)O)n(C)c3c-2c(Cl)ccc13 [AZD5991]; conditions: max 1 µM
How it was run: as §1

AZD5153 = compound: COc1nnc2ccc(N3CCC(c4ccc(OCCN5CCN(C)C(=O)[C@H]5C)cc4)CC3)nn12 [AZD5153]; conditions: max 1 µM
How it was run: as §1

MK-2206 = compound: NC1(c2ccc(-c3nc4ccn5c(=O)[nH]nc5c4cc3-c3ccccc3)cc2)CCC1 [MK-2206]; conditions: max 10 µM
How it was run: as §1

Row | Cell Line | IC50, cell viability 72 h (Lapatinib) | IC50, cell viability 72 h (AZD8186) | IC50, cell viability 72 h (Dasatinib) | IC50, cell viability 72 h (Venetoclax) | IC50, cell viability 72 h (AZD6738) | IC50, cell viability 72 h (Alisertib) | IC50, cell viability 72 h (AZD4320) | IC50, cell viability 72 h (Palbociclib) | IC50, cell viability 72 h (AZD7648) | IC50, cell viability 72 h (SG3199) | IC50, cell viability 72 h (Savolitinib) | IC50, cell viability 72 h (SN-38) | IC50, cell viability 72 h (Gefitinib) | IC50, cell viability 72 h (Olaparib) | IC50, cell viability 72 h (Doxorubicin) | IC50, cell viability 72 h (Taselisib) | IC50, cell viability 72 h (AZD0156; max 3 µM) | IC50, cell viability 72 h (Prexasertib) | IC50, cell viability 72 h (Trametinib) | IC50, cell viability 72 h (AZD1775; max 3 µM) | IC50, cell viability 72 h (AZD1390) | IC50, cell viability 72 h (Selumetinib) | IC50, cell viability 72 h (Crizotinib) | IC50, cell viability 72 h (Capivasertib) | IC50, cell viability 72 h (AZD2811) | IC50, cell viability 72 h (AZD5991) | IC50, cell viability 72 h (AZD5153) | IC50, cell viability 72 h (MK-2206) | IC50, cell viability 72 h (AZD0156; max 1 µM) | IC50, cell viability 72 h (AZD1775; max 1 µM)
1 | KG-1 (Acute Myeloid Leukemia) | > 10 µM | > 3 µM | > 2 µM | 0.55 µM | 5.63 µM | 0.774 µM | 0.0969 µM | > 10 µM | > 10 µM | > 0.001 µM | > 1 µM | 0.0132 µM | > 10 µM | > 10 µM | > 1 µM | > 10 µM | > 3 µM | 0.0458 µM | > 1 µM | 0.662 µM | > 0.3 µM | > 10 µM | > 10 µM | > 10 µM | > 1 µM | 0.0837 µM | 0.216 µM | – | – | –
2 | MCF7 (Breast Carcinoma) | > 10 µM | > 3 µM | > 2 µM | > 1 µM | 6.71 µM | > 10 µM | > 1 µM | > 10 µM | > 10 µM | > 0.001 µM | > 1 µM | 0.0532 µM | > 10 µM | > 10 µM | > 1 µM | 1.39 µM | > 3 µM | > 1 µM | > 1 µM | > 3 µM | > 0.3 µM | > 10 µM | > 10 µM | 8.44 µM | > 1 µM | 0.838 µM | 0.343 µM | 8.68 µM | – | –
3 | MES-SA (Other Solid Carcinomas) | > 10 µM | > 3 µM | > 2 µM | > 1 µM | > 10 µM | 0.856 µM | > 1 µM | > 10 µM | > 10 µM | > 0.001 µM | > 1 µM | 0.0282 µM | > 10 µM | > 10 µM | 0.268 µM | 1.18 µM | > 3 µM | 0.0801 µM | > 1 µM | 0.707 µM | > 0.3 µM | > 10 µM | > 10 µM | > 10 µM | > 1 µM | > 1 µM | > 1 µM | – | – | –
4 | NCI-H1688 (Small Cell Lung Carcinoma) | > 10 µM | > 3 µM | > 2 µM | > 1 µM | > 10 µM | > 10 µM | > 1 µM | > 10 µM | > 10 µM | > 0.001 µM | > 1 µM | > 0.3 µM | > 10 µM | > 10 µM | > 1 µM | 8.31 µM | > 3 µM | 0.533 µM | > 1 µM | 2.54 µM | > 0.3 µM | > 10 µM | > 10 µM | > 10 µM | > 1 µM | > 1 µM | > 1 µM | > 10 µM | – | –
5 | PA-TU-8902 (Pancreatic Carcinoma) | > 10 µM | > 3 µM | > 2 µM | > 1 µM | > 10 µM | > 10 µM | > 1 µM | > 10 µM | > 10 µM | > 0.001 µM | > 1 µM | > 0.3 µM | > 10 µM | > 10 µM | > 1 µM | 3.55 µM | > 3 µM | 0.693 µM | > 1 µM | > 3 µM | > 0.3 µM | > 10 µM | > 10 µM | > 10 µM | > 1 µM | > 1 µM | > 1 µM | > 10 µM | – | –
6 | RCC10RGB (Kidney Carcinoma) | > 10 µM | 1.01 µM | 0.435 µM | > 1 µM | > 10 µM | 3.46 µM | > 1 µM | > 10 µM | > 10 µM | > 0.001 µM | > 1 µM | 0.101 µM | 7.99 µM | > 10 µM | > 1 µM | 3.25 µM | > 3 µM | 0.851 µM | 0.753 µM | 2.62 µM | > 0.3 µM | > 10 µM | > 10 µM | > 10 µM | > 1 µM | > 1 µM | > 1 µM | – | – | –
7 | SNU-61 (Colorectal Carcinoma) | > 10 µM | > 3 µM | > 2 µM | > 1 µM | > 10 µM | > 10 µM | > 1 µM | > 10 µM | > 10 µM | > 0.001 µM | > 1 µM | > 0.3 µM | > 10 µM | > 10 µM | > 1 µM | > 10 µM | – | > 1 µM | 0.529 µM | – | > 0.3 µM | > 10 µM | > 10 µM | > 10 µM | > 1 µM | > 1 µM | > 1 µM | – | > 1 µM | > 1 µM
8 | U-118-MG (Low Grade Glioma) | > 10 µM | > 3 µM | > 2 µM | > 1 µM | > 10 µM | > 10 µM | > 1 µM | > 10 µM | > 10 µM | > 0.001 µM | > 1 µM | 0.0141 µM | > 10 µM | > 10 µM | > 1 µM | 6.1 µM | > 3 µM | 0.188 µM | > 1 µM | 2.74 µM | > 0.3 µM | > 10 µM | > 10 µM | 8.88 µM | > 1 µM | > 1 µM | > 1 µM | – | – | –
